Test results reported in patent US9290451B2 (Hoffmann-La Roche Inc., priority 2011, dated 2016).
Like-named read-outs stand apart in the source and are kept apart here.

Key:
[1] = molecular target: human CB2 receptors (Homo sapiens (Human), UniProt P34972); assay: cAMP assay, CHO cells expressing human CB2 receptors; assay type: cell-based
Method in brief: (§1)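 In this cellular cAMP test, IBMX (1 mM) blocked phosphodiesterase during a 30-min, 30 °C compound exposure. Accumulated cAMP was measured by a lysis-based TR-FRET kit and interpolated from a standard curve to give EC50.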

[2] = molecular target: human CB1 receptors (Homo sapiens (Human), UniProt P21554); assay: cAMP assay, CHO cells expressing human CB1 receptors; assay type: cell-based
Method in brief: as §1

[3] = CHO cells expressing human CB2, cAMP, read-out: human CB2 EC50
[4] = CHO cells expressing human CB1, cAMP, read-out: human CB1 EC50

human CB2 receptors, sequence (P34972 whole entry): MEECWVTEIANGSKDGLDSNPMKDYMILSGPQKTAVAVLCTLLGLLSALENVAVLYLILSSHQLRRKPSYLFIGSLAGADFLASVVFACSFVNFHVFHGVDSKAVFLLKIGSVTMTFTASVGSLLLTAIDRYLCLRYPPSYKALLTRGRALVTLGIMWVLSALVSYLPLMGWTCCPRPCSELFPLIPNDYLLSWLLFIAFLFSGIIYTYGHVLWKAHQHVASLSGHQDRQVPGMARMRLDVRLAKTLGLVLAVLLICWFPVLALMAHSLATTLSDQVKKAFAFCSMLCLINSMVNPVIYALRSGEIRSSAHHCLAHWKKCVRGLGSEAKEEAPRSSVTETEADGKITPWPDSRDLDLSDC
human CB1 receptors, sequence (P21554 whole entry): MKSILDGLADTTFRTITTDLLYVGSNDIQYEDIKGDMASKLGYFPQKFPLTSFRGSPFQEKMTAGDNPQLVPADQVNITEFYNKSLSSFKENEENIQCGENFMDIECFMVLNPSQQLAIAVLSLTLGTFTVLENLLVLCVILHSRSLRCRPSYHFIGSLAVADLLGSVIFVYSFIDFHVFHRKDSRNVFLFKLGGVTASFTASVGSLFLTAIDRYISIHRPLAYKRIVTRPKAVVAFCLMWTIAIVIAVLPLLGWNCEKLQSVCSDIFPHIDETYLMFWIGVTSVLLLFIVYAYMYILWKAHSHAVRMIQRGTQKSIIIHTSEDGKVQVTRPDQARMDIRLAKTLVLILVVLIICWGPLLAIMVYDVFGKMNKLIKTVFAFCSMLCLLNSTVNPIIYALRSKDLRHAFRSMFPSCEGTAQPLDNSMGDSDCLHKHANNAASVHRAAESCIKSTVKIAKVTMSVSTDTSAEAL

| SMILES | EC50 [1, 3] | EC50 [2, 4] | EC50 [1] | EC50 [2] |
| --- | --- | --- | --- | --- |
| CCC(CC)(NC(=O)c1ccc(C(F)(F)F)c(OCC2CC2)n1)C(=O)NC [Example 259, 6-Cyclopropylmethoxy-5-trifluoromethyl-pyridine-2-carboxylic acid (1-ethyl-1-methylcarbamoyl-propyl)-amide] | 5.1 nM | > 10000 nM | – | – |
| Cc1nc([C@@H](NC(=O)c2cccc(-c3ccc(F)c(Cl)c3)n2)C2CC2)no1 [Example 260, 6-(3-Chloro-4-fluoro-phenyl)-pyridine-2-carboxylic acid [(−)-cyclopropyl-(5-methyl-[1,2,4]oxadiazol-3-yl)-methyl]-amide] | 24.9 nM | > 10000 nM | – | – |
| Cc1nc([C@H](NC(=O)c2cccc(-c3ccc(F)c(Cl)c3)n2)C2CC2)no1 [Example 261, 6-(3-Chloro-4-fluoro-phenyl)-pyridine-2-carboxylic acid [(+)-cyclopropyl-(5-methyl-[1,2,4]oxadiazol-3-yl)-methyl]-amide] | 10.1 nM | 260 nM | – | – |
| CCC(CC)(NC(=O)c1ccc(C(F)(F)F)c(OCC2CCOCC2)n1)C(=O)N(C)C [Example 262, 6-(Tetrahydro-pyran-4-ylmethoxy)-5-trifluoromethyl-pyridine-2-carboxylic acid (1-dimethylcarbamoyl-1-ethyl-propyl)-amide] | 74.8 nM | > 10000 nM | – | – |
| CCOC(=O)C(CC)(CC)NC(=O)c1ccc(N2CCC23COC3)c(OCC2CC2)n1 [Example 263, 2-{[6-Cyclopropylmethoxy-5-(6-oxa-1-aza-spiro[3.3]hept-1-yl)-pyridine-2-carbonyl]-amino}-2-ethyl-butyric acid ethyl ester] | 4.5 nM | > 10000 nM | – | – |
| CCC(CC)(NC(=O)c1ccc(C(F)(F)F)c(OCC2CCCO2)n1)C(=O)N(C)C (centres unmarked) [Example 264, 6-(Tetrahydro-furan-2-ylmethoxy)-5-trifluoromethyl-pyridine-2-carboxylic acid (1-dimethylcarbamoyl-1-ethyl-propyl)-amide] | 2.7 nM | 602 nM | – | – |
| CCOC(=O)C(CC)(CC)NC(=O)c1ccc(Br)c(OCC2CC2)n1 [Example 265, 2-[(5-Bromo-6-cyclopropylmethoxy-pyridine-2-carbonyl)-amino]-2-ethyl-butyric acid ethyl ester] | 2.8 nM | > 10000 nM | – | – |
| CCOC(=O)C(CC)(CC)NC(=O)c1ccc(N2CC(F)(F)C2)c(OCC2CC2)n1 [Example 266, 2-{[6-Cyclopropylmethoxy-5-(3,3-difluoro-azetidin-1-yl)-pyridine-2-carbonyl]-amino}-2-ethyl-butyric acid ethyl ester] | 2 nM | 1300 nM | – | – |
| Cc1nc(C(C)(C)NC(=O)c2cccc(-c3ccc(Cl)c(F)c3)n2)no1 [Example 267, 6-(4-Chloro-3-fluoro-phenyl)-pyridine-2-carboxylic acid [1-methyl-1-(5-methyl-[1,2,4]oxadiazol-3-yl)-ethyl]-amide] | 26.4 nM | > 10000 nM | – | – |
| Cc1nc(C(C)(C)NC(=O)c2cccc(-c3ccc(F)c(Cl)c3)n2)no1 [Example 268, 6-(3-Chloro-4-fluoro-phenyl)-pyridine-2-carboxylic acid [1-methyl-1-(5-methyl-[1,2,4]oxadiazol-3-yl)-ethyl]-amide] | 8.7 nM | 337 nM | – | – |
| CCC(CC)(NC(=O)c1ccc(N2CC(F)(F)C2=O)c(OCC2CC2)n1)C(=O)OC [Example 269, 2-{[6-Cyclopropylmethoxy-5-(3,3-difluoro-2-oxo-azetidin-1-yl)-pyridine-2-carbonyl]-amino}-2-ethyl-butyric acid methyl ester] | 47.3 nM | > 10000 nM | – | – |
| COC(=O)[C@H](CC(C)C)NC(=O)c1ccc(C2CC2)c(OCC2CC2)n1 [Example 270, (S)-2-[(5-Cyclopropyl-6-cyclopropylmethoxy-pyridine-2-carbonyl)-amino]-4-methyl-pentanoic acid methyl ester] | 1.3 nM | 91.4 nM | – | – |
| CC(C)CC(C#N)NC(=O)c1ccc(N2CC(F)(F)C2)c(OCC2CC2)n1 (centres unmarked) [Example 271, 6-Cyclopropylmethoxy-5-(3,3-difluoro-azetidin-1-yl)-pyridine-2-carboxylic acid (1-cyano-3-methyl-butyl)-amide] | 7.9 nM | > 10000 nM | – | – |
| Cc1nc(C(CC(C)C)NC(=O)c2ccc(N3CC(F)(F)C3)c(OCC3CC3)n2)no1 (centres unmarked) [Example 272, 6-Cyclopropylmethoxy-5-(3,3-difluoro-azetidin-1-yl)-pyridine-2-carboxylic acid [3-methyl-1-(5-methyl-[1,2,4]oxadiazol-3-yl)-butyl]-amide] | – | – | 4.3 nM | > 10000 nM |
| CC(C)CC(C)(CO)NC(=O)c1ccc(N2CC(F)(F)C2)c(OCC2CC2)n1 (centres unmarked) [Example 273, 6-Cyclopropylmethoxy-5-(3,3-difluoro-azetidin-1-yl)-pyridine-2-carboxylic acid (1-hydroxymethyl-1,3-dimethyl-butyl)-amide] | – | – | 5.4 nM | 1250 nM |
| CCC(CC)(NC(=O)c1ccc(C2CC2)c(OCC2CC2)n1)C(=O)N1CCC1 [Example 274, 5-Cyclopropyl-6-cyclopropylmethoxy-pyridine-2-carboxylic acid [1-(azetidine-1-carbonyl)-1-ethyl-propyl]-amide] | 1.6 nM | 351 nM | – | – |

| SMILES | EC50 [1, 3] | EC50 [2, 4] | EC50 [1] | EC50 [2] |
| --- | --- | --- | --- | --- |
| CCC(CC)(NC(=O)c1ccc(C2CC2)c(OCC2CC2)n1)C(=O)NCCOC [Example 275, 5-Cyclopropyl-6-cyclopropylmethoxy-pyridine-2-carboxylic acid [1-ethyl-1-(2-methoxy-ethylcarbamoyl)-propyl]-amide] | 51.8 nM | > 10000 nM | – | – |
| CCN(C)C(=O)C(CC)(CC)NC(=O)c1ccc(C2CC2)c(OCC2CC2)n1 [Example 276, 5-Cyclopropyl-6-cyclopropylmethoxy-pyridine-2-carboxylic acid [1-ethyl-1-(ethyl-methyl-carbamoyl)-propyl]-amide] | 24.6 nM | > 10000 nM | – | – |
| CC(C)C[C@H](NC(=O)c1cccc(Cc2ccc(F)cc2)n1)C(N)=O [Example 277, 6-(4-Fluoro-benzyl)-pyridine-2-carboxylic acid ((S)-1-carbamoyl-3-methyl-butyl)-amide] | 16.6 nM | 1700 nM | – | – |
| O=C(N[C@H](c1ccccn1)C(F)(F)F)c1cccc(Cc2ccc(F)cc2)n1 [Example 278, 6-(4-Fluoro-benzyl)-pyridine-2-carboxylic acid ((R)-2,2,2-trifluoro-1-pyridin-2-yl-ethyl)-amide] | 20.2 nM | 357 nM | – | – |
| CC(C)[C@@](C)(CO)NC(=O)c1ccc(C2CC2)c(OCC2CC2)n1 [Example 279, 5-Cyclopropyl-6-cyclopropylmethoxy-pyridine-2-carboxylic acid ((S)-1-hydroxymethyl-1,2-dimethyl-propyl)-amide] | 23 nM | > 10000 nM | – | – |
| CC1(COc2nc(C(=O)NC(C)(C)c3nccs3)ccc2Br)COC1 [Example 280, 5-Bromo-6-(3-methyl-oxetan-3-ylmethoxy)-pyridine-2-carboxylic acid (1-methyl-1-thiazol-2-yl-ethyl)-amide] | 118 nM | 1490 nM | – | – |
| CC1(COc2nc(C(=O)NC3(c4nccs4)COC3)ccc2Br)COC1 [Example 281, 5-Bromo-6-(3-methyl-oxetan-3-ylmethoxy)-pyridine-2-carboxylic acid (3-thiazol-2-yl-oxetan-3-yl)-amide] | 447 nM | > 10000 nM | – | – |
| O=C(NC1(c2nccs2)COC1)c1ccc(Br)c(OCC(F)(F)F)n1 [Example 282, 5-Bromo-6-(2,2,2-trifluoro-ethoxy)-pyridine-2-carboxylic acid (3-thiazol-2-yl-oxetan-3-yl)-amide] | 368 nM | > 10000 nM | – | – |
| CC1(COc2nc(C(=O)NC(c3ccccn3)C(F)(F)F)ccc2Br)COC1 (centres unmarked) [Example 283, 5-Bromo-6-(3-methyl-oxetan-3-ylmethoxy)-pyridine-2-carboxylic acid (2,2,2-trifluoro-1-pyridin-2-yl-ethyl)-amide] | 109 nM | > 10000 nM | – | – |
| CCC(CC)(NC(=O)c1ccc(C2CC2)c(OCC2CC2)n1)C(=O)NCC1CC1 [Example 284, 5-Cyclopropyl-6-cyclopropylmethoxy-pyridine-2-carboxylic acid [1-(cyclopropylmethyl-carbamoyl)-1-ethyl-propyl]-amide] | 27 nM | > 10000 nM | – | – |
| CC(C)(NC(=O)c1ccc(C2CC2)c(OCC2CC2)n1)c1ccccn1 [Example 285, 5-Cyclopropyl-6-cyclopropylmethoxy-pyridine-2-carboxylic acid (1-methyl-1-pyridin-2-yl-ethyl)-amide] | 31.6 nM | 703 nM | – | – |
| CNC(=O)[C@H](CC(C)(C)C)NC(=O)c1cccc(Cc2ccc(F)cc2)n1 [Example 286, 6-(4-Fluoro-benzyl)-pyridine-2-carboxylic acid ((S)-3,3-dimethyl-1-methylcarbamoyl-butyl)-amide] | 8.2 nM | 1870 nM | – | – |
| CCC(CC)(NC(=O)c1ccc(C2CC2)c(OCC2CC2)n1)C(=O)N1CC(F)(F)C1 [Example 287, 5-Cyclopropyl-6-cyclopropylmethoxy-pyridine-2-carboxylic acid [1-(3,3-difluoro-azetidine-1-carbonyl)-1-ethyl-propyl]-amide] | 3.6 nM | > 10000 nM | – | – |
| CC(C)(NC(=O)c1ccc(N2CC(F)(F)C2)c(OCC(F)(F)F)n1)c1nccs1 [Example 288, 5-(3,3-Difluoro-azetidin-1-yl)-6-(2,2,2-trifluoro-ethoxy)-pyridine-2-carboxylic acid (1-methyl-4-thiazol-2-yl-ethyl)-amide] | 163 nM | > 10000 nM | – | – |
| CCOC(=O)C(CC)(CC)NC(=O)c1ccc(N2CCCC2)c(OCC2CC2)n1 [Example 289, 2-[(6-Cyclopropylmethoxy-5-pyrrolidin-1-yl-pyridine-2-carbonyl)-amino]-2-ethyl-butyric acid ethyl ester] | 1.4 nM | 234 nM | – | – |
